According to patent US20250289827A1, “MORPHIC FORMS OF A MUTANT BRAF DEGRADER AND METHODS OF MANUFACTURE THEREOF” (C4 THERAPEUTICS, INC., priority 2022, published 2025):
≈ marks a conversion by molar mass, not a printed value.

Assays:
[1] = Wet granulation simulation experiments; assay type: physicochemical
Method: Water or ethanol was added drop wise to about 20 mg of Compound 1 Form B until the sample was wetted sufficiently. Wet sample was ground gently with in a mortar and a pestle. Post granulation sample was dried under ambient condition for 10 min. Potential form change and degree of crystallinity were evaluated by XRPD.

[2] = Water sorption and desorption (DVS) of Compound 1 Form B; assay type: physicochemical; conditions: for 1st desorp. Weight % change / 1st sorp. Weight % change / 2nd desorp. Weight % change / 2nd sorp. Weight % change: 25° C.
Method: Water sorption and desorption behavior of Compound 1 Form B was investigated by DVS at 25° C. with a cycle of 40-0-95-0-40% RH, dm/dt 0.002, min. equilibration time 60 min and maximum equilibration time 360 min XRPD was measured after the DVS test to determine form change.

[3] = Compression simulation experiments; assay type: physicochemical; conditions: for Comments: color / Comments: crystallinity / XRPD: compressed 5 minutes
Method: About 20 mg of Compound 1 Form B was compressed for 5 minutes under 2 MPa and 10 MPa with a hydraulic press. Potential form change and degree of crystallinity were evaluated by XRPD.

[4] = Solubility data for Compound 1 drug substance; assay type: physicochemical
[5] = tested on: HT-29 human colorectal cancer cell derived xenografts (CDX); test: Efficacy in HT-29 CDX model of colorectal cancer; assay type: in vivo, BALB/c nude mice
Description: The endpoint for each individual mouse was reached when the mouse weight decreased by 20%.

BCS / DCS classification = conditions: initial studies
Description: Initial studies indicate Compound 1 is a Biopharmaceutics Classification System (BCS) Class II and a Developability Classification System (DCS) Class IIb molecule.

[6] = Crystallization by heat-cool DSC; assay type: physicochemical; conditions: for Thermal events: Melting Tonset / Thermal events: enthalpy: heated to 185° C.; for Thermal events: Delta Cp / Thermal events: Tg: reheated to 250° C.
Description: Polymorphic behavior of Compound 1 Form A was investigated by two different heat-cool DSC cycles. A Tzero pan and a Tzero hermetic lid with a pin hole were used for this experiment. No new crystalline form was obtained by heat-cool DSC.

[7] = Crystallization at room temperature by slow evaporation; assay type: physicochemical
Method: About 30 mg of Compound 1 Form A was dissolved in 0.2-10 mL of solvents. Obtained solutions were filtered through a 0.45 μm syringe membrane filter. […] Solid residues were investigated by XRPD.

[8] = Crystallization by vapor diffusion; assay type: physicochemical
Method: About 50 mg of Compound 1 Form A was dissolved in the minimal amount of selected solvents at ambient temperature (about 20-25° C.). Obtained solutions were filtered through a 0.45 μm syringe membrane filter. […] Then these 8 mL lid less vials were placed to 40 mL glass vials. To the 40 mL vials were added anti-solvents. Then these 40 mL vials were capped tightly and placed at ambient condition for up to 21 days. Precipitates were collected by centrifugation filtration through a 0.45 μm nylon membrane filter at 14,000 rpm. Solid parts (wet cakes) were investigated by XRPD.

[9] = Crystallization from hot saturated solutions by slow cooling; assay type: physicochemical; conditions: for Result: slow cooling
Method: About 50 mg of Compound 1 Form A was dissolved in the minimal amount of selected solvents at 50° C. Obtained solutions were filtered through a 0.45 μm syringe membrane filter. […] Samples without precipitates at 5° C. were further cooled to −20° C. Precipitates were collected by centrifugation filtration through a 0.45 μm nylon membrane filter at 14,000 rpm. Solid parts (wet cakes) were investigated by XRPD.
Obtained solutions were filtered through a 0.45 μm syringe membrane filter. […] Obtained suspensions were cooled to 5° C. at 0.1° C./min and kept at 5° C. for about 12 h. Precipitates were collected by centrifugation filtration through a 0.45 μm nylon membrane filter at 14,000 rpm. Solid parts (wet cakes) were investigated by XRPD.

[10] = Cycle 1 (cooling at 20° C./min)

CCN(C)S(=O)(=O)Nc1ccc(F)c(Oc2ccc3ncn([C@H]4COC5(CCN(C(=O)CC6(O)CCN(c7cc8c(cc7F)c(N7CCC(=O)NC7=O)nn8C)CC6)CC5)C4)c(=O)c3c2)c1C#N [Compound 1 Form B]
XRPD after wet granulation ([1]; granulation solvent Ethanol): Form B; no crystallinity decrease. | XRPD after wet granulation ([1]; granulation solvent Water): Form B; no crystallinity decrease. | Crystallinity change after wet granulation ([1]; in the presence of water or ethanol): no changes in crystallinity | 1st desorp. Weight % change ([2]; 0% RH): 0.0% | 1st sorp. Weight % change ([2]; 0% RH): 0.0% | 2nd desorp. Weight % change ([2]; 0% RH): 0.0% | 2nd sorp. Weight % change ([2]; 0% RH): 0.0% | 1st desorp. Weight % change ([2]; 10% RH): 0.1% | 1st sorp. Weight % change ([2]; 10% RH): 0.1% | 2nd desorp. Weight % change ([2]; 10% RH): 0.1% | 2nd sorp. Weight % change ([2]; 10% RH): 0.1% | 1st desorp. Weight % change ([2]; 20% RH): 0.3% | 1st sorp. Weight % change ([2]; 20% RH): 0.2% | 2nd desorp. Weight % change ([2]; 20% RH): 0.3% | 2nd sorp. Weight % change ([2]; 20% RH): 0.2% | 1st desorp. Weight % change ([2]; 30% RH): 0.4% | 1st sorp. Weight % change ([2]; 30% RH): 0.3% | 2nd desorp. Weight % change ([2]; 30% RH): 0.4% | 2nd sorp. Weight % change ([2]; 30% RH): 0.3% | 1st desorp. Weight % change ([2]; 40% RH): 0.5% | 1st sorp. Weight % change ([2]; 40% RH): 0.4% | 2nd desorp. Weight % change ([2]; 40% RH): 0.5% | 2nd sorp. Weight % change ([2]; 40% RH): 0.4% | 1st sorp. Weight % change ([2]; 50% RH): 0.5% | 2nd desorp. Weight % change ([2]; 50% RH): 0.8% | 1st sorp. Weight % change ([2]; 60% RH): 0.6% | 2nd desorp. Weight % change ([2]; 60% RH): 0.9% | 1st sorp. Weight % change ([2]; 70% RH): 0.7% | 2nd desorp. Weight % change ([2]; 70% RH): 1.0% | 1st sorp. Weight % change ([2]; 80% RH): 0.9% | 2nd desorp. Weight % change ([2]; 80% RH): 1.2% | 1st sorp. Weight % change ([2]; 90% RH): 1.2% | 2nd desorp. Weight % change ([2]; 90% RH): 1.4% | 1st sorp. Weight % change ([2]; 95% RH): 1.6% | 2nd desorp. Weight % change ([2]; 95% RH): 1.6% | Crystallinity change after water sorption and desorption ([2]; DVS 25° C., 40-0-95-0-40% RH cycle): no changes in crystallinity | Water uptake ([2]; DVS 25° C., at 95% RH): 1.6% | Morphic form stability under compression ([3]; 2 MPa and 10 MPa): excellent morphic form stability | Comments: color ([3]; 2 MPa): Slight discoloration. | Comments: crystallinity ([3]; 2 MPa): Slight decrease in crystallinity; | XRPD ([3]; 2 MPa): Form B | Comments: color ([3]; 10 MPa): Slight discoloration. | Comments: crystallinity ([3]; 10 MPa): Slight decrease in crystallinity; | XRPD ([3]; 10 MPa): Form B

CCN(C)S(=O)(=O)Nc1ccc(F)c(Oc2ccc3ncn([C@H]4COC5(CCN(C(=O)CC6(O)CCN(c7cc8c(cc7F)c(N7CCC(=O)NC7=O)nn8C)CC6)CC5)C4)c(=O)c3c2)c1C#N [Compound 1, (3R)-3-[6-[2-cyano-3-[[ethyl(methyl)sulfamoyl]amino]-6-fluorophenoxy]-4-oxoquinazolin-3-yl]-8-[2-[1-[3-(2,4-dioxo-1,3-diazinan-1-yl)-5-fluoro-1-methylindazol-6-yl]-4-hydroxypiperidin-4-yl]acetyl]-1-oxa-8-azaspiro[4.5]decane]
solubility ([4]; FaSSIF, pH 6.48, fassif): 5840 µg/mL (≈ 6.1 mM) | solubility ([4]; FeSSIF, pH 4.86, fessif): 1350 µg/mL (≈ 1.41 mM) | solubility ([4]; SGF, pH 1.74, simulated gastric fluid): 6580 µg/mL (≈ 6.87 mM) | solubility ([4]; aqueous buffer, 50 mM pH 6.8 phosphate buffer solution, pH 6.76): 1530 µg/mL (≈ 1.6 mM) | solubility ([4]; aqueous buffer, 50 mM pH 7.4 phosphate buffer solution, pH 7.40): 8790 µg/mL (≈ 9.18 mM) | solubility ([4]; aqueous buffer, 100 mM pH 3.0 citrate buffer solution, pH 3.02): 2090 µg/mL (≈ 2.18 mM) | solubility ([4]; aqueous buffer, 100 mM pH 4.5 citrate buffer solution, pH 4.53): 3160 µg/mL (≈ 3.3 mM) | solubility ([4]; aqueous buffer, pH 9.0 NaOH solution, pH 8.55): 21600 µg/mL (≈ 22.5 mM) | solubility ([4]; pH 8.9, Purified water, pH 8.90): 42400 µg/mL (≈ 44.3 mM) | solubility ([4]; simulated gastric fluid, pH 1.2 HCl/KCl solution, pH 1.17): 23000 µg/mL (≈ 24 mM) | solubility ([4]; simulated gastric fluid, pH 2.0 HCl/KCl solution, pH 1.95): 4350 µg/mL (≈ 4.54 mM) | Tumor response at end of study ([5]; 10 mg/kg PO BID plus cetuximab 11 mg/kg IP Q3D): tumor regression | Tumor response at end of study ([5]; 10 mg/kg PO BID, without cetuximab): tumor regression | Biopharmaceutics Classification System (BCS) class (BCS / DCS classification): Class II | Developability Classification System (DCS) class (BCS / DCS classification): Class IIb

CCN(C)S(=O)(=O)Nc1ccc(F)c(Oc2ccc3ncn([C@H]4COC5(CCN(C(=O)CC6(O)CCN(c7cc8c(cc7F)c(N7CCC(=O)NC7=O)nn8C)CC6)CC5)C4)c(=O)c3c2)c1C#N [Compound 1 Form A]
Thermal events: Melting Tonset [6, 10]: Tonset 167.7° C., enthalpy about | Thermal events: enthalpy [6, 10]: ~16 J/g | Thermal events: Delta Cp [6, 10]: Delta Cp 0.3 J(g. ° C.) | Thermal events: Tg [6, 10]: Heated to 250° C.: Tg 149.8° C., | Thermal events: Melting Tonset ([6]; Cycle 2 (cooling at 2° C./min)): Tonset 167.7° C., enthalpy about | Thermal events: enthalpy ([6]; Cycle 2 (cooling at 2° C./min)): ~17 J/g | Thermal events: Delta Cp ([6]; Cycle 2 (cooling at 2° C./min)): Delta Cp 0.2 J(g. ° C.) | Thermal events: Tg ([6]; Cycle 2 (cooling at 2° C./min)): Heated to 250° C.: Tg 145.9° C., | Comments ([7]; 1,4-Dioxane): Glassy material | Comments ([7]; Acetone): Glassy material | XRPD ([7]; Acetonitrile): Amorphous form | XRPD ([7]; DCM): Almost amorphous form | XRPD ([7]; DCM/methanol (v:v = 1:1)): Almost amorphous form | XRPD ([7]; Ethyl acetate): Amorphous form | XRPD ([7]; Methanol): Almost amorphous form | Comments ([7]; Methyl ethyl ketone): Glassy material | Comments ([7]; THF): Glassy material | Results ([8]; 2-MeTHF (8.0) / MTBE (32.0) mL): Few solids | Results ([8]; Acetone (2.5) / MTBE (10.0) mL): Oil material | Results ([8]; Acetonitrile (3.0) / MTBE (12.0) mL): Oil material | Results ([8]; DMSO (0.2) / Ethanol (0.8) mL): Oil material | XRPD ([9]; slow cooling with Form B seeds, Acetone): Form B | Result ([9]; Acetone/water (v:v = 1:1)): Sticky material | Result ([9]; Acetone, placed at −20° C. for 11 days): for 11 days: clear solution | Result ([9]; Acetonitrile/water (v:v = 1:1), placed at −20° C. for 11 days): for 11 days: clear solution | Result ([9]; Acetonitrile, placed at −20° C. for 11 days): for 11 days: clear solution | Result ([9]; DCM): Sticky material | Result ([9]; Ethanol, placed at −20° C. for 10 days): for 10 days: few solids | Result ([9]; Ethyl acetate, placed at −20° C. for 11 days): for 11 days: clear solution | Result ([9]; Methyl ethyl ketone, placed at −20° C. for 11 days): for 11 days: clear solution | Result ([9]; THF): Oil material | Result ([9]; THF/water (v:v = 1:1), placed at −20° C. for 11 days): for 11 days: clear solution
